According to publication PMC11369174, “Proteome-scale characterisation of motif-based interactome rewiring by disease mutations” (Molecular Systems Biology, 2024):
Where a SMILES comes first, the peptide text is derived from it. The star is where a group is joined. FITC = O=C1OC2(c3ccc(O)cc3Oc3cc(O)ccc32)c2ccc(NC(=S)*)cc21

Columns and labels:
NEDD4 WW2 = NEDD4 WW2 (Homo sapiens, UniProt P46934); assay: FP saturation binding, NEDD4 WW2; conditions: GST-tagged construct, domain titrated to 10 nM FITC-peptide, 50 mM sodium phosphate pH 7.4, 0.05% Tween, quadratic fit, technical triplets, read-out: KD [µM] + SE
Chain of NEDD4 WW2 (P46934 765-803 limits assumed): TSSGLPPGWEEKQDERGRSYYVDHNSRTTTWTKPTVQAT
Method: (§4) In order to calculate the FP signal in millipolarisation (mP), the FITC-labelled peptides were excited at 485 nm and the emitted light was measured at 535 nm in two different angles. For saturation experiments, a dilution series of the respective protein domains was generated (25 µL) and 10 nM fluorescein isothiocyanate (FITC)-labelled peptide (diluted in 50 mM sodium phosphate buffer pH 7.4, 0.05% Tween) were added in an end volume of 50 µL. A control experiment titrating GST was performed for the binding of the NEDD4 WW2 domain, since the GST-tagged construct was used for affinity measurements. For fitting the data, the buffer-corrected reduced values were plotted in GraphPad PRISM against the respective protein concentration and the KD-values were obtained by fitting against the quadratic equation (Gianni et al, [2005]).

CREBBP KIX = CREBBP KIX (Homo sapiens, UniProt Q92793); assay: FP saturation binding, CREBBP KIX; conditions: domain titrated to 10 nM FITC-peptide, 50 mM sodium phosphate pH 7.4, 0.05% Tween, quadratic fit, technical triplets, read-out: KD [µM] + SE
Chain of CREBBP KIX (Q92793 587-673): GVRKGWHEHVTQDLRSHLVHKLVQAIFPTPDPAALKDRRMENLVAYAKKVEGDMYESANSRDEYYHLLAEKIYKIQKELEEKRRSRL

USP7 MATH/TRAF [1] = molecular target: T1, USP7 MATH/TRAF (Homo sapiens, UniProt Q93009); assay: FP saturation binding, USP7 MATH/TRAF; conditions: domain titrated to 10 nM FITC-peptide, 50 mM sodium phosphate pH 7.4, 0.05% Tween, quadratic fit, technical triplets, read-out: KD [µM] + SE
T1 sequence (Q93009 53-206): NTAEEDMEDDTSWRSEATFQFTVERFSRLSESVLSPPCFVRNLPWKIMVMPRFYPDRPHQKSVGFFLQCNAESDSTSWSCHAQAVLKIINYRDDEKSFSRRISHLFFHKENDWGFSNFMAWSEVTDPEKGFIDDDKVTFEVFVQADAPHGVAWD

MAP1LC3A ATG8 [2] = molecular target: T2, MAP1LC3A ATG8 (Homo sapiens, UniProt Q9H492); assay: FP displacement assay, MAP1LC3A ATG8; assay type: binding; conditions: read-out: KD-values [µM] + SEM
Method: (§5) FP experiments were performed, as previously described (Kliche et al, [2021], [2023]), on an iD5 plate reader (Molecular devices) using black half-area non-binding 96-well plates (Corning). In order to calculate the FP signal in millipolarisation (mP), the FITC-labelled peptides were excited at 485 nm and the emitted light was measured at 535 nm in two different angles. For saturation experiments, a dilution series of the respective protein domains was generated (25 µL) and 10 nM fluorescein isothiocyanate (FITC)-labelled peptide (diluted in 50 mM sodium phosphate buffer pH 7.4, 0.05% Tween) were added in an end volume of 50 µL. […] For fitting the data, the buffer-corrected reduced values were plotted in GraphPad PRISM against the respective protein concentration and the KD-values were obtained by fitting against the quadratic equation (Gianni et al, [2005]).
(§6) The buffer-corrected reduced values were subsequently plotted against the logarithmic unlabelled peptide concentration to derive the IC50 values by using the sigmoidal dose-response (x is logarithmic) fit in GraphPad PRISM and calculate the KD values as described previously (Nikolovska-Coleska et al, [2004]).

Clathrin NTD = molecular target: T3, Clathrin NTD (Homo sapiens, UniProt Q00610); assay: FP saturation binding, Clathrin NTD; conditions: domain titrated to 10 nM FITC-peptide, 50 mM sodium phosphate pH 7.4, 0.05% Tween, quadratic fit, technical triplets, read-out: KD [µM] + SE
T3 sequence (Q00610 1-364): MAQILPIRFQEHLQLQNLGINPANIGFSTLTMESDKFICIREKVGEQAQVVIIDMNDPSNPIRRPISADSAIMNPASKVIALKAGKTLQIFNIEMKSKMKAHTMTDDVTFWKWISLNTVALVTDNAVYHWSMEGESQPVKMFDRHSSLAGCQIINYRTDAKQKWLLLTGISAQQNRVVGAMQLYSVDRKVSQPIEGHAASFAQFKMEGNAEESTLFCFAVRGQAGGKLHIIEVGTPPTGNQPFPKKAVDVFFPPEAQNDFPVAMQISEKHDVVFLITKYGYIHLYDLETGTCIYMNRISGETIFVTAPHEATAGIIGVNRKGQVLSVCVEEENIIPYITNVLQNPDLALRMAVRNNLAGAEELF
Method: as §4

ABL1 SH3 = ABL1 SH3 (Homo sapiens, UniProt P00519); assay: FP saturation binding, ABL1 SH3; conditions: domain titrated to 10 nM FITC-peptide, 50 mM sodium phosphate pH 7.4, 0.05% Tween, quadratic fit, technical triplets, read-out: KD [µM] + SE
Chain of ABL1 SH3 (P00519 60-121): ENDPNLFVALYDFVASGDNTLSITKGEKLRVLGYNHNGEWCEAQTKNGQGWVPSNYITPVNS

GABARAPL1 ATG8 = GABARAPL1 ATG8 (Homo sapiens, UniProt Q9H0R8); assay: FP saturation binding, GABARAPL1 ATG8; conditions: domain titrated to 10 nM FITC-peptide, 50 mM sodium phosphate pH 7.4, 0.05% Tween, quadratic fit, technical triplets, read-out: KD [µM] + SE
Chain of GABARAPL1 ATG8 (Q9H0R8 2-115): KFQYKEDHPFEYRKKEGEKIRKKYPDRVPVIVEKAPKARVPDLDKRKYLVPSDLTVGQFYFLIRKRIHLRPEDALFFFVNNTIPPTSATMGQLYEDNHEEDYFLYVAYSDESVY

GGA1 VHS [3] = molecular target: T4, GGA1 VHS (Homo sapiens, UniProt Q9UJY5); assay: GenVar_HD2 ProP-PD phage selection, GGA1 VHS; conditions: bait GGA1 VHS; from NGS counts of overlapping wild-type/mutant library peptide pairs; positive = mutation enhances, negative = disrupts binding
T4 sequence (Q9UJY5 1-157): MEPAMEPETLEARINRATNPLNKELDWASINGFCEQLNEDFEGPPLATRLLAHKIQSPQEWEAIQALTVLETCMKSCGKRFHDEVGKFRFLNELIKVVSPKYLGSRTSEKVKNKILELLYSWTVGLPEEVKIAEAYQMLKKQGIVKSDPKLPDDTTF
Method: (§1) Phage display screens were performed according to previous reports (Benz et al, [2022]; Ali et al, [2020]) and for four consecutive selection rounds with five to six replicates per bait protein domain against the […] library.
(§2) On the first day, both bait (15 µg in 100 µL PBS) and control protein domains (GST and MBP; 10 µg in 100 µL PBS) were immobilised on a 96-well MaxiSorb plate (Nunc) overnight in the cold room while shaking. Additionally, a 10 mL culture of Omnimax E. coli bacteria supplemented with 10 µg/mL tetracycline was incubated overnight at 37 °C at 200 rpm.
(§3) First, protein solutions were removed from both control and bait protein domain plates and the wells were blocked with 0.5% BSA in PBS (200 µL/well) for 1 h in the cold room while shaking. After that, three Omnimax E. coli cultures were started supplemented with either 30 µg/mL kanamycin, 100 µg/mL carbenicillin and 10 µg/mL tetracycline and incubated at 37 °C and 200 rpm. The two first cultures served as a means to check for helper phage contamination (kanamycin) and phages with library phagemid contamination (carbenicillin) of the culture used for elution of the phages during selections. The tetracycline Omnimax E. coli culture was grown until OD at 600 nm reached 0.6–0.8. […]

MAP1LC3A ATG8 [4] = molecular target: T2, MAP1LC3A ATG8; assay: GenVar_HD2 ProP-PD phage selection, MAP1LC3A ATG8; conditions: bait MAP1LC3A ATG8; from NGS counts of overlapping wild-type/mutant library peptide pairs; positive = mutation enhances, negative = disrupts binding
Method: as §1, §2, §3

USP7 MATH/TRAF [5] = molecular target: T1, USP7 MATH/TRAF; assay: GenVar_HD2 ProP-PD phage selection, USP7 MATH/TRAF; conditions: bait USP7 MATH/TRAF; from NGS counts of overlapping wild-type/mutant library peptide pairs; positive = mutation enhances, negative = disrupts binding
Method: as §1, §2, §3

USP7 MATH/TRAF [6] = molecular target: T1, USP7 MATH/TRAF; assay: FP displacement assay, USP7 MATH/TRAF; assay type: binding; conditions: read-out: KD-values [µM] + SEM
Method: as §5, §6

KPNA4 ARM minor = KPNA4 ARM minor (Homo sapiens, UniProt O00629); assay: FP saturation binding, KPNA4 ARM (minor); conditions: domain titrated to 10 nM FITC-peptide, 50 mM sodium phosphate pH 7.4, 0.05% Tween, quadratic fit, technical triplets, read-out: KD [µM] + SE
Chain of KPNA4 ARM minor (O00629 68-487): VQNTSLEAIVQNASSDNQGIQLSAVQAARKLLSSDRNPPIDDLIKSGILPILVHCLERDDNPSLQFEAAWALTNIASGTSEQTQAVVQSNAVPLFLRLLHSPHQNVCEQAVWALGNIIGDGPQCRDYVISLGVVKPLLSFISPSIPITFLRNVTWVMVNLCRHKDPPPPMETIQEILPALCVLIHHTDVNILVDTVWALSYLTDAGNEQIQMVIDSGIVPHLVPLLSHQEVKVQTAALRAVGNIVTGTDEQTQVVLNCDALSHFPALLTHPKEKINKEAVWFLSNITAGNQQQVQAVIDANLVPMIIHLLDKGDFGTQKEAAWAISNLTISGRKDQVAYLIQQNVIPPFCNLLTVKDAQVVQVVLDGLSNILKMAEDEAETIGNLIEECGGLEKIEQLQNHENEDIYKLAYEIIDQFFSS

KPNA7 ARM (minor) = KPNA7 ARM (minor) (Homo sapiens, UniProt A9QM74); assay: FP saturation binding, KPNA7 ARM (minor); conditions: domain titrated to 10 nM FITC-peptide, 50 mM sodium phosphate pH 7.4, 0.05% Tween, quadratic fit, technical triplets, read-out: KD [µM] + SE
Chain of KPNA7 ARM (minor) (A9QM74 58-488 limits assumed): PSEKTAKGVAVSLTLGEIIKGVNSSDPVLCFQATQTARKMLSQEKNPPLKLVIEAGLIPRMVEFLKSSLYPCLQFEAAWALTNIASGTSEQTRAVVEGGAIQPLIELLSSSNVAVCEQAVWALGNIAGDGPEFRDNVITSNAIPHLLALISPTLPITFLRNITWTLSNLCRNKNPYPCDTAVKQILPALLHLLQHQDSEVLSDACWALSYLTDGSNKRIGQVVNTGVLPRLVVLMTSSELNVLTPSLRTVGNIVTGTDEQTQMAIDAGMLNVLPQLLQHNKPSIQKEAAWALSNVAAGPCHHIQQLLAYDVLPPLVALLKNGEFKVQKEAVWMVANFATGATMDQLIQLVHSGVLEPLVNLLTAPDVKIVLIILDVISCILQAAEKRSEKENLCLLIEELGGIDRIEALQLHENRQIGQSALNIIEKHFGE

GGA1 VHS [7] = molecular target: T4, GGA1 VHS; assay: FP saturation binding, GGA1 VHS; conditions: domain titrated to 10 nM FITC-peptide, 50 mM sodium phosphate pH 7.4, 0.05% Tween, quadratic fit, technical triplets, read-out: KD [µM] + SE

C[C@H](NC(=O)[C@H](CO)NC(=O)[C@H](Cc1ccc(O)cc1)NC(=O)[C@@H]1CCCN1C(=O)[C@@H]1CCCN1C(=O)[C@@H]1CCCN1C(=O)[C@H](CO)NC(=O)[C@H](CC(=O)O)NC(=O)[C@@H](NC(=S)Nc1ccc2c(c1)C(=O)OC21c2ccc(O)cc2Oc2cc(O)ccc21)[C@@H](C)O)C(=O)NCC(=O)O [FITC-UL56(HHV-2)] ({FITC}-TDSPPPYSAG-OH)
Kd (NEDD4 WW2): 4.1 ± 0.3 µM

CC(C)C[C@H](NC(=O)[C@H](CC(C)C)NC(=O)[C@H](CC(=O)O)NC(=O)[C@H](CO)NC(=O)[C@H](CC(C)C)NC(=O)[C@H](CCC(=O)O)NC(=O)[C@H](CCCCN)NC(=O)[C@H](CC(=O)O)NC(=S)Nc1ccc2c(c1)C(=O)OC21c2ccc(O)cc2Oc2cc(O)ccc21)C(=O)N[C@@H](CC(=O)O)C(=O)N[C@@H](Cc1ccccc1)C(=O)N[C@@H](CO)C(N)=O [FITC-TCF3] ({FITC}-DKELSDLLDFS-NH2)
Kd (CREBBP KIX): 35 ± 4 µM

CC[C@H](C)[C@H](NC(=O)[C@H](CO)NC(=O)[C@H](CO)NC(=O)[C@H](CO)NC(=O)[C@@H](NC(=O)[C@H](CO)NC(=O)[C@@H]1CCCN1C(=O)[C@H](CCC(N)=O)NC(=O)[C@H](CO)NC(=O)[C@H](Cc1ccc(O)cc1)NC(=O)[C@H](CC(=O)O)NC(=S)Nc1ccc2c(c1)C(=O)OC21c2ccc(O)cc2Oc2cc(O)ccc21)[C@@H](C)O)C(=O)N[C@H](C(=O)N[C@@H](Cc1ccc(O)cc1)C(=O)O)[C@@H](C)CC [FITC-MDM2] ({FITC}-DYSQPSTSSSIIY-OH)
Kd (USP7 MATH/TRAF [1]): 0.5 ± 0.03 µM

Ac-QTKWELLQQVDTSTRT-NH2 [KRT1_209-224 wild-type]
Kd (MAP1LC3A ATG8 [2]): 55 ± 5 µM

CC[C@H](C)[C@H](NC(=O)[C@H](CC(C)C)NC(=O)[C@H](CC(=O)O)NC(=O)[C@@H](NC(=O)[C@H](CO)NC(=S)Nc1ccc2c(c1)C(=O)OC21c2ccc(O)cc2Oc2cc(O)ccc21)C(C)C)C(=O)N[C@H](C(=O)N[C@@H](Cc1ccccc1)C(=O)N[C@@H](CC(=O)O)C(=O)N[C@@H](CO)C(=O)N[C@H](C(N)=O)C(C)C)[C@@H](C)O [FITC-NSP3] ({FITC}-SVDLITFDSV-NH2)
Kd (Clathrin NTD): 21 ± 3 µM

CC(C)[C@H](NC(=O)[C@@H]1CCCN1C(=O)[C@@H]1CCCN1C(=O)[C@@H]1CCCN1C(=O)[C@@H]1CCCN1C(=O)[C@H](Cc1ccc(O)cc1)NC(=O)[C@H](C)NC(=O)[C@@H]1CCCN1C(=O)[C@@H]1CCCN1C(=O)[C@H](Cc1c[nH]cn1)NC(=S)Nc1ccc2c(c1)C(=O)OC21c2ccc(O)cc2Oc2cc(O)ccc21)C(=O)N1CCC[C@H]1C(=O)N[C@H](C(N)=O)[C@@H](C)O [FITC-3BP2] ({FITC}-HPPAYPPPPVPT-NH2)
Kd (ABL1 SH3): 3.7 ± 0.4 µM

CC(C)C[C@H](NC(=O)[C@H](Cc1c[nH]cn1)NC(=O)[C@@H](NC(=O)[C@H](Cc1c[nH]c2ccccc12)NC(=O)[C@H](CC(=O)O)NC(=O)[C@H](CC(=O)O)NC(=O)[C@H](CC(=O)O)NC(=S)Nc1ccc2c(c1)C(=O)OC21c2ccc(O)cc2Oc2cc(O)ccc21)[C@@H](C)O)C(=O)N[C@@H](CO)C(=O)N[C@@H](CO)C(=O)N[C@@H](CCCCN)C(N)=O [FITC-SQSTM1]
Kd (GABARAPL1 ATG8): 3.7 ± 0.4 µM

Ac-YQQELDHLLVDLDHQR-NH2 [MYH9_1419-1433 D1424H]
Mutation enrichment score (GGA1 VHS [3]): −10

Ac-QTKWEPLQQVDTSTRT-NH2 [KRT1_209-224 L214P]
Mutation enrichment score (MAP1LC3A ATG8 [4]): −6

Ac-YISSSSTSTMPNSSKSS-NH2 [CHK2_38-53 Q51K]
Mutation enrichment score (USP7 MATH/TRAF [5]): −6 | Kd (USP7 MATH/TRAF [6]): 4.7 ± 0.3 µM

CC[C@H](C)[C@H](NC(=O)[C@H](C)NC(=O)[C@H](CCCNC(=N)N)NC(=O)CNC(=O)[C@@H](NC(=O)[C@H](CCCNC(=N)N)NC(=O)CNC(=O)[C@H](CCC(=O)O)NC(=O)[C@H](CCSC)NC(=O)[C@H](CCSC)NC(=O)[C@H](CC(=O)O)NC(=O)[C@H](Cc1ccc(O)cc1)NC(=O)[C@@H](NC(=O)[C@H](CCCNC(=N)N)NC(=O)[C@H](CCCCN)NC(=O)[C@@H]1CCCN1C(=S)Nc1ccc2c(c1)C(=O)OC21c2ccc(O)cc2Oc2cc(O)ccc21)[C@@H](C)O)C(C)C)C(N)=O [FITC-NCOR2] ({FITC}-PKRTYDMMEGRVGRAI-NH2)
Kd (KPNA4 ARM minor): 0.03 ± 0.002 µM | Kd (KPNA7 ARM (minor)): 57 ± 9 µM

CC[C@H](C)[C@H](NC(=O)[C@H](CC(=O)O)NC(=O)[C@H](CC(C)C)NC(=O)[C@H](CC(C)C)NC(=O)[C@H](CC(=O)O)NC(=O)[C@H](CCC(=O)O)NC(=O)[C@H](CC(=O)O)NC(=O)[C@H](CCC(=O)O)NC(=O)[C@H](CC(=O)O)NC(=S)Nc1ccc2c(c1)C(=O)OC21c2ccc(O)cc2Oc2cc(O)ccc21)C(=O)N[C@@H](CCC(=O)O)C(=O)N[C@@H](CC(=O)O)C(N)=O [FITC-STK11_mut] ({FITC}-DEDEDLLDIED-NH2)
Kd (GGA1 VHS [7]): 14.1 ± 0.7 µM
